In patent publication US6369109B1, “Betulinic acid and derivatives thereof useful for the treatment of neuroectodermal tumor” (Deutsches Krebsforschungszentrum Stiftung des Offentlichen …, priority 1998, dated 2002):
Entries after “also recorded” stand apart in the source; their conditions may differ. Residues, ends and D or L forms follow the SMILES beside them. *: point of attachment. Cbz = O=C(OCc1ccccc1)*; CH2F = FC*

How the values were obtained:
[1] = system: SH-EP neuroblastoma cells; test: Specific apoptosis, FACS analysis of propidium iodide-stained nuclei; assay type: cell-based, human; conditions: for effect of CD95 blockage by F(ab′)2 anti-APO-1 on drug-induced apoptosis: 10 μg/ml antibody fragments 1 h before drug, 10 μg/ml betulinic acid, 50 μg/ml VP-16, 10 μg/ml cisplatinum, 0.5 μg/ml doxorubicin, 72 h, FIG. 3B
Protocol: Quantification of DNA fragmentation was performed by FACS analysis of propidium iodide stained nuclei as described in Nicoletti et al, 1991, J. Immunol. Methods. 139: 271-279. Cells were analyzed for DNA content by flow. cytometry (FACScan, Becton Dickinson, Heidelberg, Germany) using CELLQuest software. Early apoptotic changes were identified by staining with biotinylated annexin V (Bender Med Systems, Vienna, Austria) following the manufacturer's instructions. Annexin V binds to exposed phosphatidylserine on the surface of apoptotic cells. Koopman et al, 1994, Blood. 84:1415-1420. Cells were analyzed by flow cytometry (FAC-Scan. Becton Dickinson) using CELLQuest software.
Cells were treated with 10 μg/ml betulinic acid for 72 h. Apoptosis was assessed by FACS analysis of propidium iodide-stained nuclei. Percentage of specific apoptosis was calculated as follows: experimental apoptosis (%) −spontaneous apoptosis in medium (%)/[100%−spontaneous apoptosis in medium (%)]×100%. […]
Cells were incubated for indicated times with doxorubicin, betulinic acid or anti-APO-1 and harvested by trypsinization using 0.05% trypsin and 0.02% EDTA without Ca^2+and Mg^2+(Life Technologies, Inc.). Quantification of DNA fragmentation was performed by FACS analysis of propidium iodide stained nuclei as previously described in Nicoletti et al., J. ImmunoL Methods 139:271-279, using CELLQuest software (Becton Dickinson, Heidelberg, Germany).
(§1) SHEP cells transfected with Bcl-2 or BCl-XL or a neomycin resistance vector only (Neo) were treated with 0.5 μg/ml Doxorubicin or 10 μg/ml Betulinic acid for 48 h (A) or 24 h (B and C). Cells transfected with a neomycin resistance vector only (Neo) were treated in the presence or absence of 50 μm BA or 60 μm zVAD-fmk. Nuclear apoptosis was determined by FACS analysis or propidium iodide-stained DNA content in intact cells (A) or in a CFS incubating isolated nuclei with mitochondria from cells treated with Doxo or betulinic acid (C). ΔΨm was determined by staining cells with the potential-sensitive fluorochrome DiOC6(3) (B).

[2] = system: isolated nuclei with mitochondria from SHEP cells; test: Cell-free system of apoptosis: nuclear fragmentation of isolated nuclei; assay type: biochemical, human; conditions: for effect of inhibitor on betulinic acid-induced fragmentation of nuclei / effect of inhibitor on nuclear fragmentation by mitochondria from drug-pretreated cells / effect of inhibitor on DNA fragmentation by supernatants from betulinic acid-treated mitochondria: 50 μM bongkrekic acid or 60 μM zVAD-fmk; for effect of inhibitor on DNA fragmentation by supernatants from betulinic acid-treated mitochondria: FIG. 10B
Protocol: (§2) For determination of nuclear fragmentation, nuclei (10^3/μl) were incubated with mitochondria (1 μg/μl) in buffer D (10 mM HEPES, pH 7.4, 50 mM NaCl, 2 mM MgCl2, 5 mM EGTA, 1 mM DDT, 2 mM ATP, 10 mM phosphocreatine, 50 μg/ml creatine kinase, 10 μM cytochalasin B) for 2 h at 37° C. Nuclei were stained with propidium iodide ([…]) and analyzed by flow cytometry. For determination of caspase activation, cytosolic extracts (2 μg/μl) were incubated with mitochondria (1 μg/μl), cytochrome c (0.1-100 μM) or AIF-containing mitochondrial supernatant (0.5 μg/μl) in buffer D for 2 h at 37° C. Partially purified AIF (cytochrome c-free) was prepared as previously described (0.5 mg/ml, Susin et al., 1997, J. Exp. Med. 186, 5-37; Susin et al., 1996, J. Exp. Med. 184, 1331-41). Proteins were separated by 15% SDS-PAGE and Western blot analysis was performed as described above.
Mitochondria isolated from SHEP cells, transfected with bcl-2 or bcl-XL or a neomycin resistance vector only, were incubated for 6 h with nuclei and 0.1-10 μg/ml betulinic acid (FIG. 8A) or 5 mM atractyloside (FIG. 8B) in the presence or absence of 50 μM bongkrekic acid or 60 μMZ-VAD-fnk. Nuclei incubated with either mitochondria from vector only cells or with betulinic acid were used as control. Nuclear apoptosis was determined by FACS analysis of propidium iodide stained DNA content.
SHEP cells transfected with bcl-2 or bcl-XL or a neomycin resistance vector only were treated with 10 μg/ml betulinic acid or 5 mM atractyloside for 6-24 h (FIG. 8C). Mitochondria were isolated and incubated with nuclei in the presence or absence of 50 μM bongkrekic acid or 60 μMZ-VAD-fmk. Nuclei incubated with either mitochondria front vector only cells or with betulinic acid were used as control. Nuclear apoptosis was determined by FACS analysis of propidium iodide stained DNA content.
Mitochondria isolated from SHEP cells transfected with bcl-2, Bcl-XL or a neomycin resistance vector only were treated with 10 μg/ml betulinic acid or 5 mM atractyloside for 0.5 h in the presence or absence of 50 μM bongkrekic acid or 60 μM zVAD-fmk. Mitochondrial supernatants obtained by high speed centrifugation were incubated with nuclei for 2 h at 37° C. Nuclei incubated with supernatants of untreated mitochondria were used as control.. Nuclear apoptosis was determined by FACS analysis of propidium iodide stained DNA content.
as §2, with “cytometry (Susin et al., 1997 Exp. Cell Res. 236:397-403).” for “cytometry.”, “(10” for “(0.1-100”, “C.” for “C. Partially purified AIF (cytochrome c-free) was prepared as previously described (0.5 mg/ml, Susin et al., 1997, J. Exp. Med. 186, 5-37; Susin et al., 1996, J. Exp. Med. 184, 1331-41).”, “before.” for “above.”
as §1

Row | SMILES | effect of inhibitor on betulinic acid-induced apoptosis ([1]; 60 μM zVAD-fmk, 10 μg/ml betulinic acid 72 h, FIG. 2D) | effect of inhibitor on betulinic acid-induced nuclear fragmentation ([1]; 60 μM zVAD-fmk, FIG. 12A) | effect of inhibitor on doxorubicin-induced nuclear fragmentation ([1]; 60 μM zVAD-fmk, FIG. 12A) | effect of inhibitor on betulinic acid-induced fragmentation of nuclei ([2]; FIG. 8A) | effect of inhibitor on nuclear fragmentation by mitochondria from drug-pretreated cells ([2]; FIG. 8C, 12C) | effect of inhibitor on DNA fragmentation by supernatants from betulinic acid-treated mitochondria [2] | effect of CD95 blockage by F(ab′)2 anti-APO-1 on drug-induced apoptosis [1] | effect of inhibitor on drug-triggered nuclear fragmentation ([1]; 50 μM bongkrekic acid, doxorubicin or betulinic acid, FIG. 12A) | nuclear fragmentation in intact SHEP cells ([1]; 0.5 μg/ml doxorubicin or 10 μg/ml betulinic acid, 48 h, FIG. 12A) | nuclear fragmentation by mitochondria isolated from drug-pretreated cells ([2]; 10 μg/ml betulinic acid or 0.5 μg/ml doxorubicin, FIG. 8C, 12C) | nuclear DNA fragmentation, mitochondria plus nuclei plus drug ([2]; Neo control mitochondria, 0.1-10 μg/ml betulinic acid or 5 mM atractyloside, 6 h, FIG. 8A, 8B)
1 | COC(=O)C[C@H](NC(=O)[C@H](C)NC(=O)[C@@H](NC(=O)OCc1ccccc1)C(C)C)C(=O)CF [zVAD-fmk, benzyloxycarbonyl-Val-Ala-Asp-Fluoromethylketone] (Cbz-Val-Ala-Asp(OMe)-CH2F) | almost completely abrogated apoptosis | only affected the betulinic acid-induced nuclear fragmentation | both inhibited | inhibited | again blocked | also blocked | – | – | – | – | –
2 | CO[C@H](C/C=C\C=C\CC/C=C/C[C@H](C)/C=C/C(=C\C(=O)O)CC(=O)O)/C(C)=C\C=C(/C)C(=O)O [bongkrekic acid] | – | – | – | inhibited | again blocked | also blocked | did not inhibit | inhibited drug-triggered nuclear fragmentation and ΔΨm loss | – | – | –
3 | COc1cccc2c1C(=O)c1c(O)c3c(c(O)c1C2=O)C[C@@](O)(C(=O)CO)C[C@@H]3O[C@H]1C[C@H](N)[C@H](O)[C@H](C)O1 [doxorubicin] | – | – | – | – | – | – | significantly blocked; also recorded: markedly reduced | – | induced loss of ΔΨm and nuclear fragmentation | induced nuclear DNA fragmentation | No DNA fragmentation was observed
